Data published in patent US6720332B2, “Oxindole derivatives” (SmithKline Beecham Corporation, priority 2000, dated 2004).

Assays:
[1] = molecular target: T1, CDK4 (Cyclin D1 and cyclin-dependent kinase 4) (Homo sapiens, UniProt P11802); test: CDK4 substrate phosphorylation assay (Rb protein); type: biochemical; details: read-out: CDK4 inhibition
T1 construct: made in house
Procedure: (§1) The compounds of the present invention have valuable pharmacologic properties. Different compounds from this class are particularly effective at inhibiting CDK2 and/or CDK4 enzymes at concentrations, which range from 0.0001 to 1 μM and additionally show specificity relative to other kinases. Substrate phosphorylation assays were carried out as follows:
Cyclin D1 and cyclin-dependent kinase 4 were expressed utilizing a baculovirus expression system. The catalytic activity of CDK4 protein was assayed by measuring the phosphorylation of Rb protein. A truncated Rb protein (residues 773-928 of the native retinoblastoma protein, fused to glutathione S-transferase to facilitate purification) was used as the phosphoryl acceptor. The assay conditions were 100 mM HEPES (N-[2-hydroxyethyl]piperzine-N′-[2-ethanesulfonic acid]), pH 7.5, 0.5 μM GST-Rb protein, 1 μCi/mL [^33P]-ATP (1 nM-20 μM), 5-20 mM MgCl2, 2.5 mM EDTA, 1 mM dithiothieitol, 0.2 mg/mL bovine serum albumin, 2% (v/v) dimethyl sulfoxide (DMSO), CDK4 enzyme (5-50 nM) in a final volume of 50 μL. Reactions were incubated for time periods of 10-60 min at 30° C. and terminated by the addition of 50 μL quench (1 mM ATP/100 mM EDTA, pH 7.0). Detection of protein phosphorylation was accomplished by scintillation counting following collection of protein in 96 well plates coated with Glitathione or trapping of protein onto phosphocellulose filters. Counts detected by these methodologies minus the appropriate background were assumed to be proportional to the reaction initial rates. IC50 values were determined by measuring enzyme activity in the presence of different inhibitor concentrations (0.1 nM to 50 μM). IC50s were determined by a least squares fit to the equation CPM=Vmax*(1−([I]/(K+[I])))+nsb, or pIC50s were determined by a fit to the equation CPM=nsb+(Vmax−nsb)/(1+(x/10^x−pIC50)), where nsb are the background counts.

[2] = system: human tumor cells (U2OS, MDA-MB-231, SaOs-2, MDA-MB-468); test: Anti-proliferation cell-based assay (BrdU incorporation); details: 18 hr compound incubation, cell line not given, read-out: Anti-proliferative activity
Procedure: Anti-Proliferation Cell-Based Assay
The anti-proliferative activity of compounds was determined measuring the rate of DNA synthesis by bromodeoxyuridine (BrdU) incorporation into cellular DNA. The amount of BrdU in cellular DNA was detected using an anti-BrdU antibody in an ELISA format to allow for rapid throughput. Log-phase growing human tumor cells either containing functional Rb (U2OS, MDA-MB-231) or lacking functional Rb protein (SaOs-2, MDA-MB-468) were plated in medium into 96-well plates (1−6×10^3 cells/100 μL medium/well) and allowed to incubate overnight […]. Compounds (concentration range of 0.046-100 μM) were diluted in medium (final DMSO (v/v) 0.8%), added to wells containing cells, and incubated for 18 hr at 37° C. BrdU (100 μM) was added and incubated for 4 hr. Cells were rinsed with PBS and DNA was denatured by addition of fixation/denaturation solution. Anti-BrdU antibody conjugated to horseradish peroxidase in 1% BSA was added for 2 hr at room temperature. Cells were washed, the chemiluminescence reagent was added, and plates were read in luminometer.

CDK2 = molecular target: T2, CDK2 (Homo sapiens, UniProt P24941); test: CDK2 substrate phosphorylation assay (biotinylated peptide); type: biochemical; details: read-out: CDK2 inhibition
T2 construct: made in house
Procedure: as §1
Cyclin dependent protein kinase 2 assays utilized the peptide Biotin-aminohexyl-ARRPMSPKKKA-NH2 as phosphoryl group acceptor. CDK2 was expressed utilizing a baculovirus expression system and was partially purified to comprise 20-80% of total protein, with no detectable competing reactions present. Typically, assays were performed by incubating enzyme (0.2-10 nM), with and without inhibitor, peptide substrate (1-10 nM), [g-^32P]ATP (1-20 nM), and 10-20 mM Mg^2+ for periods of time generally within the range 10-120 minutes. Reactions were terminated with 0.2-2 volumes of either 20% acetic acid or 50-100 mM EDTA buffered to pH 7 (substrate consumption <20%). The buffer employed in enzyme assay was 100 mM HEPES pH 7.5 containing 0.1 mg/mL BSA and 5% DMSO. Inhibitors were diluted in 100% DMSO prior to addition into the assay. Detection of peptide phosphorylation was accomplished by scintillation counting following either collection of peptide onto phosphocellulose filters (for reactions stopped with acetic acid), collection of peptide in wells of 96 well plates coated with Streptavidin (Pierce) (reactions were stopped with EDTA), or addition of Avidin coated Scintillant impregnated beads (Scintillation Proximity Assays from Amersham, reactions were stopped with EDTA). […] Radioactivity was determined by liquid scintillation counting.

T1 sequence (P11802 whole entry): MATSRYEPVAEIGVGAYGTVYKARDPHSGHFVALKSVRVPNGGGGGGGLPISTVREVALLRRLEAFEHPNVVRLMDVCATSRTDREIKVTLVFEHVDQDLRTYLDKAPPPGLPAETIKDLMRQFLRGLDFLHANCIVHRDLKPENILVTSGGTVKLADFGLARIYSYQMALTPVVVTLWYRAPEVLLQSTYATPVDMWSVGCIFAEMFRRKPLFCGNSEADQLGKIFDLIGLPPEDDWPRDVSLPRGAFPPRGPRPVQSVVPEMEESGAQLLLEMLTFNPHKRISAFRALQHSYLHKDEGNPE
T1 sequence (P24385 whole entry partner): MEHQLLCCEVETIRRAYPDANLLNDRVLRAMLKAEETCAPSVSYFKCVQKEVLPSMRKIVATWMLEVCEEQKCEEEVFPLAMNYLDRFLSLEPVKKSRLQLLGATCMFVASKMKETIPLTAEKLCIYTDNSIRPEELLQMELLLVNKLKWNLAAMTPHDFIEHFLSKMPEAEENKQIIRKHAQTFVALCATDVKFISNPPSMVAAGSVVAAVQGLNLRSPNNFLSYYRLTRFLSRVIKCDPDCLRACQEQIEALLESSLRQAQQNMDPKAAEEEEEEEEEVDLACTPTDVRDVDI

Structure (SMILES)	IC50 [1] [nM]	IC50 [2] [nM]	IC50 (CDK2) [nM]
O=C1Nc2ccc3ncccc3c2/C1=C/Nc1ccc(CN2CCOCC2)cc1 [Example 10, 1-[(Z)-(4-(4-morpholinyl)methylanilino)methylidene]-1,3-dihydro-2H-pyrrolo[3,2-f]quinoline-2-one]	< 100	< 1000	< 100
CC(C)CN(C)Cc1ccc(N/C=C2\C(=O)Nc3ccc4ncccc4c32)cc1 [Example 6, 1-[(Z)-(4-(N-Methyl)-2-methylpropylaminomethylanilino)methylidene]-1,3-dihydro-2H-pyrrolo[3,2-f]quinoline-2-one]	< 100	< 100	< 1000
CN(C)Cc1ccc(N/C=C2\C(=O)Nc3ccc4ncccc4c32)cc1 [Example 1, 1-[(Z)-(4-Dimethylaminomethylanilino)methylidene]-1,3-dihydro-2H-pyrrolo[3,2-f]quinoline-2-one]	< 100	< 1000	< 1000
